In US7405230B2, “Phosphodiesterase 4 inhibitors, including N-substituted aniline and diphenylamine analogs” (Memory Pharmaceuticals Corporation, priority 2002, dated 2008):

Tests used:
[1] = system: Rats; assay: Passive avoidance in rats, an in vivo test for learning and memory (reversal of MK-801 amnesia); parameters: species or system rat (Male Spraque-Dawley (Harlan)); conditions: MK-801 0.1 mg/kg pretreatment, 24 hours after electric shock, compared to the vehicle (p<0.001)
Procedure: The test was performed as previously described (Zhang, H.-T., Crissman, A. M., Dorairaj, N. R., Chandler, L. J., and O'Donnell, J. M., Neuropsychopharmacology, 2000, 23, 198-204.). The apparatus (Model E10-16SC, Coulbourn Instruments, Allentown, Pa.) consisted of a two-compartment chamber with an illuminated compartment connected to a darkened compartment by a guillotine door. The floor of the darkened compartment consisted of stainless steel rods through which an electric foot-shock could be delivered from a constant current source. All experimental groups were first habituated to the apparatus the day before the start of the experiment. […] The latency for entering the darkened compartment was recorded. […] Twenty-four hours later, the rat was administered 0.1 mg/kg MK-801 or saline, 30 minutes prior to the injection of saline or test compound (dosed from […], which was 30 minutes before the retention test started. The rat was again placed in the illuminated compartment with the guillotine door open. The latency for entering the darkened compartment was recorded for up to 180 seconds, at which time the trial was terminated.
(§1) All data were analyzed by analyses of variance (ANOVA); individual comparisons were made using Kewman-Keuls tests. […]

[2] = system: Rats; assay: Radial arm maze task in rats, an in vivo test for learning and memory (reversal of MK-801 amnesia); parameters: species or system rat (male Spraque-Dawley (Harlan)); conditions: MK-801 0.1 mg/kg, i.p., compared to control (p<0.01)
Procedure: The test was performed as previously described (Zhang, H.-T., Crissman, A. M., Dorairaj, N. R., Chandler, L. J., and O'Donnell, J. M., Neuropsychopharmacology, 2000, 23, 198-204.). Five days after initial housing, rats (male Spraque-Dawley (Harlan) weighing 250 to 350 g) were placed in the eight-arm radial maze (each arm was 60×10×12 cm high; the maze was elevated 70 cm above the floor) for acclimation for two days. Rats were then placed individually in the center of the maze for 5 minutes with food pellets placed close to the food wells, and then, the next day, in the wells at the end of the arms; 2 sessions a day were conducted. Next, four randomly selected arms were then baited with one pellet of food each. The rat was restricted to the center platform (26 cm in diameter) for 15 seconds and then allowed to move freely throughout the maze until it collected all pellets of food or 10 minutes passed, whichever came first. Four parameters were recorded: 1) working memory errors, i.e., entries into baited arms that had already been visited during the same trial; 2) reference memory errors, i.e., entries into unbaited arms; 3) total arm entries; and 4) the test duration (seconds), i.e., the time spent in the collection of all the pellets in the maze. […]
as §1

C[C@]12N[C@H](Cc3ccccc31)c1ccccc12 [MK-801]
Latency for entering the darkened compartment [1]: markedly reduced this latency | Frequencies of working and reference memory errors [2]: increased the frequencies of both working and reference memory errors
